The record followed here is patent US8343987B2, “Heterocyclic derivatives” (Bayer Intellectual Property GmbH, priority 2004, dated 2013).

The first assay deals with T1, human neutrophil elastase (HNE) (Homo sapiens, UniProt P08246).
T1 construct: purchased SERVA Electrophoresis GmbH, Heidelberg, Germany #20927.01
T1 sequence (P08246 30-267): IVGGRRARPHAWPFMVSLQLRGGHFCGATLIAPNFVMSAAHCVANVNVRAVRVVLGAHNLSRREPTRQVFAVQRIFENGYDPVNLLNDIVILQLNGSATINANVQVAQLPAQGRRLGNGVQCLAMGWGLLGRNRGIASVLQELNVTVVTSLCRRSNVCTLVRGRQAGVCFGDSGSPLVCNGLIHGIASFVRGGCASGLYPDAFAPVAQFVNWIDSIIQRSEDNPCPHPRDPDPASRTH
The experiment in a line: In vitro inhibition of HNE using a fluorogenic peptide substrate (Example I-A). In kind it is biochemical. Particulars: substrate MeOSuc-Ala-Ala-Pro-Val-AMC, continuous read-out, 384 MTP format. How it is done:
The test solution is prepared by mixing 10 μl of test compound dilution, 20 μl of HNE enzyme dilution (final concentration 8-0.4 μU/ml, routinely 2.1 μU/ml) and 20 μl of substrate dilution (final concentration 1 mM-1 μM, routinely 20 μM), respectively. The solution is incubated for 0-2 hrs at 37° C. (routinely one hour). The fluorescence of the liberated AMC due to the enzymatic reaction is measured at 37° C. (TECAN spectra fluor plus plate reader). […] IC50 values are determined by RFU-versus-[I] plots. Km and Km(app.) values are determined by Lineweaver-Burk plots and converted to K1 values by Dixon plots.
Consider `CC(=O)C1=C(C)N(c2cccc(C(F)(F)F)c2)C(=O)N(/C=C/C(=O)O)C1c1ccc(C#N)cc1` (stereo not shown) [Example 24], for which the IC50 worked out at 0.01 µM.
Same read-out and setting: under `CC(=O)C1=C(C)N(c2cccc(C(F)(F)F)c2)C(=O)N(Cc2ccc(C(CC(C)C)C(=O)O)cc2)C1c1ccc(C#N)cc1` (stereo not shown) [Example 19] stands 0.02 µM.
The same measure, in the same setting: the result for `C=CCOC(=O)C1=C(C)N(c2cccc(C(F)(F)F)c2)C(=O)N(CC(=O)NS(=O)(=O)c2ccc(C(F)(F)F)cc2)C1c1ccc(C#N)cc1` (stereo not shown) [Example 67] reads 0.07 µM; that for `CC(=O)C1=C(C)N(c2cccc(C(F)(F)F)c2)C(=O)N(Cc2ccc(C(=O)O)cc2)[C@@H]1c1ccc(C#N)cc1` [Example 22], 0.008 µM.
Consider `CC1=C(C(=O)c2ccco2)C(c2ccc(C#N)cc2)N(CC(=O)O)C(=O)N1c1cccc(C(F)(F)F)c1` (stereo not shown) [Example 29A, [6-(4-Cyanophenyl)-5-(2-furoyl)-4-methyl-2-oxo-3-[3-(trifluoromethyl)pheny-l]-3,6-dihydropyrimidin-1(2H)-yl]acetic acid], for which the IC50 was 0.02 µM.
Still for that read-out and setting: under `CC1=C(C(=O)c2cccnc2)C(c2ccc(C#N)cc2)N(CC(=O)NS(=O)(=O)CC(F)(F)F)C(=O)N1c1cccc(C(F)(F)F)c1` (stereo not shown) [Example 55, 2-[6-(4-Cyanophenyl)-4-methyl-2-oxo-5-(pyridin-3-ylcarbonyl)-3-[3-(trifluoromethyl)phenyl]-3,6-dihydropyrimidin-1(2H)-yl]-N-[(2,2,2-trifluoroethyl)sulfonyl]acetamide] stands 0.02 µM.
On the same count and under the same terms, the result for `C=CCOC(=O)C1=C(C)N(c2cccc(C(F)(F)F)c2)C(=O)N(C2(C(=O)OCC)CC2)C1c1ccc(C#N)cc1` (stereo not shown) [Example 61] reads 0.13 µM; that for `COC(=O)c1cccc(CN2C(=O)N(c3cccc(C(F)(F)F)c3)C(C)=C(C(C)=O)C2c2ccc(C#N)cc2)c1` (stereo not shown) [Example 1, Methyl 3-{[5-acetyl-6-(4-cyanophenyl)-4-methyl-2-oxo-3-[3-(trifluoromethyl-)phenyl]-3,6-dihydropyrimidin-1(2H)-yl]methyl}benzoate], 0.03 µM.
The same measure, in the same setting: the result for `CC1=C(C#N)C(c2ccc(C#N)nc2)NC(=O)N1c1cccc(C(F)(F)F)c1` (stereo not shown) [Example 19A, 4-(6-Cyanopyridin-3-yl)-6-methyl-2-oxo-1-[3-(trifluoromethyl)phenyl]-1,2,3-,4-tetrahydro-pyrimidine-5-carbonitrile] reads 0.07 µM.
As for `CC(=O)C1=C(C)N(c2cccc(C(F)(F)F)c2)C(=O)N(CC(=O)NS(=O)(=O)c2ccc(C#N)cc2)[C@@H]1c1ccc(C#N)cc1` [Example 74], the IC50 is 0.01 µM.
Still for that read-out and setting: under `CC1=C(C(=O)c2cccnc2)C(c2ccc(C#N)cc2)N(CC(=O)O)C(=O)N1c1cccc(C(F)(F)F)c1` (stereo not shown) [Example 31A, [6-(4-Cyanophenyl)-4-methyl-2-oxo-5-(pyridin-3-ylcarbonyl)-3-[3-(trifluoro-methyl)phenyl]-3,6-dihydropyrimidin-1(2H)-yl]acetic acid] stands 0.01 µM; under `CC1=C(C(=O)O)C(c2ccc(C#N)cc2)N(Cc2cccc(/C=C/C(=O)O)c2)C(=O)N1c1cccc(C(F)(F)F)c1` (stereo not shown) [Example 39, 3-{3-[(E)-2-Carboxyvinyl]benzyl}-4-(4-cyanophenyl)-6-methyl-2-oxo-1-[3-(trifluoromethyl)-phenyl]-1,2,3,4-tetrahydropyrimidine-5-carboxylic acid], 0.12 µM.
`CC1=C(C(=O)c2ccco2)C(c2ccc(C#N)cc2)N(Cc2cccc(C(=O)O)c2)C(=O)N1c1cccc(C(F)(F)F)c1` (stereo not shown) [Example 44]: the IC50 came to 0.03 µM.
As to `CC1=C(C(=O)c2cccnc2)C(c2ccc(C#N)cc2)NC(=O)N1c1cccc(C(F)(F)F)c1` (stereo not shown) [Example 21A, 4-{6-Methyl-2-oxo-5-(pyridin-3-ylcarbonyl)-1-[3-(trifluoromethyl)phenyl]-1-,2,3,4-tetrahydro-pyrimidin-4-yl}benzonitrile], the IC50 is 0.06 µM.

For another assay, the system named is human polymorphonuclear cells (PMNs). The experiment in a line: In vitro PMN elastolysis assay (Example II-A). The assay is classed as cell-based. Particulars: at 1.2 μM; mean±s.e.m.; n=3 different donors at 3.6×10^5 cells per well. On the procedure:
This assay is used to determine the elastolytic potential of human polymorphonuclear cells (PMNs) and assess the proportion of degradation due to neutrophil elastase [cf. Z. W. She et al., Am. J. Respir. Cell. Mol. Biol. 9386-392 (1993)].
Tritiated elastin, in suspension, is coated on to a 96 well plate at 10 μg per well. Test and reference [ZD-0892 (J. Med. Chem. 40, 1876-1885, 3173-3181 (1997), WO 95/21855) and α1 protease inhibitor (α1PI)] compounds are added to the wells at the appropriate concentrations. Human PMNs are separated from peripheral venous blood of healthy donors and resuspended in culture media. The neutrophils are added to the coated wells at concentrations ranging between […] cells per well. Porcine pancreatic elastase (1.3 μM) is used as a positive control for the assay, and α1PI (1.2 μM) is used as the positive inhibitor of neutrophil elastase. The cellular control is PMNs without compound at each appropriate cell density. The cells plus compounds are incubated in a humidified incubator at 37° C. for 4 hours. The plates are centrifuged to allow the harvest of cell supernatant only. The supernatant is transferred in 75 μl volumes to corresponding wells of a 96 well Lumaplate™ (solid scintillant containing plates). The plates are dried until no liquid is visible in the wells and read in a beta counter for 3 minutes per well. […]
Consider “α1PI: α1 protease inhibitor, used as the positive inhibitor of neutrophil elastase”, for which the “inhibition of 3H-elastin elastolysis” value is 83.46±3.97%.

The same assay, now with this note: mean±s.e.m.; n=2 different donors at 3.6×10^5 cells per well.
For `COc1ccc(C(=O)N[C@H](C(=O)N2CCC[C@H]2C(=O)N[C@H](C(=O)C(F)(F)F)C(C)C)C(C)C)cc1` [ZD-0892], the IC50 was 0.0455 ± 0.00775 µM.

The term IC50 denotes the concentration that gives 50% inhibition.
